Measured values as given in paper PMC7549094 (Journal of Medicinal Chemistry, 2020).

Legend:
[1] = metabolite profile in rat hepatocytes; format: in vitro ADME; settings: 10 μM of 1 for 4 h, UV 250 nm, normalized to largest peak
hr EGFR = hr EGFR (Homo sapiens, UniProt P00533); experiment: receptor profile (Table S4); format: biochemical
[2] = test system: T. brucei bloodstream form overexpressing PSMB5 Y113F; experiment: growth inhibition of T. brucei overexpressing PSMB5 Y113F; format: cell-based
Source text: Generation of T. brucei strains ectopically expressing proteasome β4 and β5 subunit variants
All the T. brucei proteasome mutants were generated by following protocols described earlier (Khare et
assembly technology (NEBuilder high fidelity DNA assembly cloning kit). The sense (5′-
Y113F gene was generated from the wild-type PSMB5 construct by site-directed mutagenesis using
mutagenic sense (5′- [sequence]tcgta[sequence]-3′), antisense (5′-
[sequence]-3′) primers and QuikChange II Site-Directed Mutagenesis Kit
(Stratagene). The sequences of the wild-type and mutant PSMB5 genes were verified by sequencing and
both gene versions were cloned into the T. brucei expression vector pHD1034 under control of a
ribosomal RNA promoter. Transfected T. brucei Lister 427 cells were selected in medium supplemented
with puromycin at 1 μg/ml. Susceptibility of transfected T. brucei cell lines to compounds was assessed
after 2 days of compound treatment. Parasite viability was determined with CellTiter-Glo. All assays were
carried out in three biological replicates. Reported EC50 values for T. brucei parasites ectopically
expressing PSMB5 proteins were calculated from three technical replicates.
inhibition of T. brucei bloodstream form constitutively overexpressing wild -type PSMB5 or PSMBY113F

hr PR antag = biological target: T1, hr PR antag (Homo sapiens, UniProt P06401); experiment: receptor profile (Table S4); format: biochemical
T1 sequence (P06401 1-933): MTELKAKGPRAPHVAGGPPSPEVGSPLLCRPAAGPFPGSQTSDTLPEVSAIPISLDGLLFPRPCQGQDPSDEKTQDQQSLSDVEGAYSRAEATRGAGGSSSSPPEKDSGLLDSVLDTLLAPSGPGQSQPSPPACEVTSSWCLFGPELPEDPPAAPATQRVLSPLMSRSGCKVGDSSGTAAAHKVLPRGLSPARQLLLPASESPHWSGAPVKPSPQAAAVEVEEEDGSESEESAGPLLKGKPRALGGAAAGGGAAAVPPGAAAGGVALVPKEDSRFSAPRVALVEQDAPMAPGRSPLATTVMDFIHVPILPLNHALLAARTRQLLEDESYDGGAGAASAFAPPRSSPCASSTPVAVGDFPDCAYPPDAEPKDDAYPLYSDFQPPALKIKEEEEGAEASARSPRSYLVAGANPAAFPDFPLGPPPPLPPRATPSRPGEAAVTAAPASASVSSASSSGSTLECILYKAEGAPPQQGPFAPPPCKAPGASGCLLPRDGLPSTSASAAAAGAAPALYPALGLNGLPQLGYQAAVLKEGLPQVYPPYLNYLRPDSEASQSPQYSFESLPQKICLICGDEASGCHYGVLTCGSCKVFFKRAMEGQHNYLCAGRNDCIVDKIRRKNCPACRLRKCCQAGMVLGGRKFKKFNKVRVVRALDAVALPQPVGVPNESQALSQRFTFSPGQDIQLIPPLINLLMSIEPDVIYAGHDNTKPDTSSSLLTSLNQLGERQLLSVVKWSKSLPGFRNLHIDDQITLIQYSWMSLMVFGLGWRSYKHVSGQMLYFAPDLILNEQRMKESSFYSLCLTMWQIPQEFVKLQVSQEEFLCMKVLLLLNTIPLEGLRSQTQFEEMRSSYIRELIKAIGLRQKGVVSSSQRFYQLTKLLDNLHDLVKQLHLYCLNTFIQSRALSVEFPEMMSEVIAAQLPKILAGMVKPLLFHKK

hr AT1 = biological target: T2, hr AT1 (Homo sapiens, UniProt P30556); experiment: receptor profile (Table S4); format: binding
T2 sequence (P30556 1-359): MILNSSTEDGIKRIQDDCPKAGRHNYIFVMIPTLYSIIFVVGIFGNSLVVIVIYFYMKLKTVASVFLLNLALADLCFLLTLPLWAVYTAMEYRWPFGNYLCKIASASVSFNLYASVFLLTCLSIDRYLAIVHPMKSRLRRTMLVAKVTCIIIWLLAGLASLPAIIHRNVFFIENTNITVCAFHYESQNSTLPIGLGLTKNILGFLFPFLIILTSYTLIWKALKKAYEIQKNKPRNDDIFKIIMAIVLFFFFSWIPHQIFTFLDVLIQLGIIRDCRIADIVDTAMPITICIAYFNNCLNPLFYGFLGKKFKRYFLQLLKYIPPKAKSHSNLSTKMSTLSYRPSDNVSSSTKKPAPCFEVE

hr M2 ag = biological target: T3, hr M2 ag (Homo sapiens, UniProt P08172); experiment: receptor profile (Table S4); format: biochemical
T3 sequence (P08172 1-466): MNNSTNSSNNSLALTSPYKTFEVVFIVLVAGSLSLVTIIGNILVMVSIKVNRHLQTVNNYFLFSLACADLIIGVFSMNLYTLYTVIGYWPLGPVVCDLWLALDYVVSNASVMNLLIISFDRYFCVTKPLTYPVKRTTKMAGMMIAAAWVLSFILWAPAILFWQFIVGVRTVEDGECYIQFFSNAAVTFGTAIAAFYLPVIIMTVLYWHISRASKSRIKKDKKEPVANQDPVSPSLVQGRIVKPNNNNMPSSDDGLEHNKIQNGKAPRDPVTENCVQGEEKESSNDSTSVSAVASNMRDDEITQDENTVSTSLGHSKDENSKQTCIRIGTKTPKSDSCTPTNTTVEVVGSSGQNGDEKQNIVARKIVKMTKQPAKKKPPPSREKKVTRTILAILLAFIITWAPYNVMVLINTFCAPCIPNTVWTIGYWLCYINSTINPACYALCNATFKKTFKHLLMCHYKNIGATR

hr PR ag = biological target: T4, hr PR ag (Homo sapiens, UniProt P06401); experiment: receptor profile (Table S4); format: biochemical
T4 sequence (P06401 1-933): T1 sequence (P06401 1-933)

hr OpD = hr OpD (Homo sapiens, UniProt P41143); experiment: receptor profile (Table S4); format: binding
hr OpD, sequence (P41143 whole entry): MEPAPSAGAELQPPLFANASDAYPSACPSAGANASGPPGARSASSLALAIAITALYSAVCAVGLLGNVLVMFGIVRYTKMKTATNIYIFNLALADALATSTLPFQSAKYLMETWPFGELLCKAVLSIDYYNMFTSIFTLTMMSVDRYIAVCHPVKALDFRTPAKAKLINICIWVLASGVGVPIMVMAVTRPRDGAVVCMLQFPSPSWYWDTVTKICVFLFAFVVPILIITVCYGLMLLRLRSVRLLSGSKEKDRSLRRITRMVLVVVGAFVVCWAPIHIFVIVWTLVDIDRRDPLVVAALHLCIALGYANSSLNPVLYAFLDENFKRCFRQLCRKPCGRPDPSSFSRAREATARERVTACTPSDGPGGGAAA

hr M1 = biological target: T5, hr M1 (Homo sapiens, UniProt P11229); experiment: receptor profile (Table S4); format: binding
T5 sequence (P11229 1-460): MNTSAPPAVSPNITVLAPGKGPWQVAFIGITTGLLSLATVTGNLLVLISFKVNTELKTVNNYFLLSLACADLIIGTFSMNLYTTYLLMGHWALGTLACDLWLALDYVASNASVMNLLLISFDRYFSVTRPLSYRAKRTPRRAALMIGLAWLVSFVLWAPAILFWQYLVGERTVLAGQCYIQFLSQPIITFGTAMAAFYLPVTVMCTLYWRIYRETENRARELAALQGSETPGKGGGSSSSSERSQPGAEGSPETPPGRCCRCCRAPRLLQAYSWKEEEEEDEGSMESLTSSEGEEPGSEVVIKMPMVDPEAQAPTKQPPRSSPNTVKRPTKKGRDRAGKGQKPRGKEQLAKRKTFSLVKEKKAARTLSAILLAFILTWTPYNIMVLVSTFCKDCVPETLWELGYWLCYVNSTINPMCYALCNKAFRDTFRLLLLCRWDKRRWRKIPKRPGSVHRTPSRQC

[3] = male Sprague–Dawley rat, 10 mg/kg PO; dose-normalized
[4] = metabolite profile in mouse hepatocytes; format: in vitro ADME; settings: 10 μM of 1 for 4 h, UV 250 nm, normalized to largest peak

hr EGFR, sequence (P00533 25-1210): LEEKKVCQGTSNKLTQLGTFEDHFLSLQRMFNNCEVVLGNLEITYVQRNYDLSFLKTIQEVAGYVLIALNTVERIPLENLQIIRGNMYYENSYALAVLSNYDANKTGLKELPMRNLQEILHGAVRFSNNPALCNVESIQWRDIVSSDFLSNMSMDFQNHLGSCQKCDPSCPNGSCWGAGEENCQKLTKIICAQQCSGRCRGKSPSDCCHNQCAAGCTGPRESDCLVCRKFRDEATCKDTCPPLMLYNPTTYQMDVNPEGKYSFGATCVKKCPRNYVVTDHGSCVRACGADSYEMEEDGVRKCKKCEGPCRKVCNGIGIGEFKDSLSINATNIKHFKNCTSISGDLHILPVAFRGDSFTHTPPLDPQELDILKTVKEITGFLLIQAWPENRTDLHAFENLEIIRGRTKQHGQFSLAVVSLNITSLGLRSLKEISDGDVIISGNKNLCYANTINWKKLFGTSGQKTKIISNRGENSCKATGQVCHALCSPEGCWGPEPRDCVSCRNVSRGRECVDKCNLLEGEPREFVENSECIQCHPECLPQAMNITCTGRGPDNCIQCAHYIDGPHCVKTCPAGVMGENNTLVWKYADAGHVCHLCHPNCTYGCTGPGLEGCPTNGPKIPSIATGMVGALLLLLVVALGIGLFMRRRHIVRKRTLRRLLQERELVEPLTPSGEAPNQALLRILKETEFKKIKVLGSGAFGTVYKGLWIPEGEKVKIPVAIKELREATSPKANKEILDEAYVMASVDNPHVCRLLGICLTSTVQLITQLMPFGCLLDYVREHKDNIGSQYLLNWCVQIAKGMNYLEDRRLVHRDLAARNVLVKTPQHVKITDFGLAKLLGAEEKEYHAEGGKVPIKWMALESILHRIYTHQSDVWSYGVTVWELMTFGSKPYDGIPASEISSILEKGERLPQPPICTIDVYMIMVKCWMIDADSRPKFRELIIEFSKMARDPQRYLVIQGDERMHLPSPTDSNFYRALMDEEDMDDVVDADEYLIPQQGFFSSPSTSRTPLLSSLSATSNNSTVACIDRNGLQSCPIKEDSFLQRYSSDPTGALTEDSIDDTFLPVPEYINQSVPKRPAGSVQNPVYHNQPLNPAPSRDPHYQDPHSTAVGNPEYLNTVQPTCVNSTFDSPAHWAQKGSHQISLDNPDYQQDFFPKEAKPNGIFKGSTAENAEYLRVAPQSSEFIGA

## Cc1nc(C)c(C(=O)Nc2ccc(F)c(-c3nc4ncc(-c5ncccc5C)cn4n3)c2)o1 [compound 1, N-(4-Fluoro-3-(6-(3-methylpyridin-2-yl)-[1,2,4]triazolo[1,5-a]pyrimidin-2-yl)phenyl)-2,4-dimethyloxazole-5-carboxamide]
[1]
  abundance rat: +++ (+++ > 75%)
Hr EGFR; hr EGFR
  EC50/IC50: > 30 µM
Hr EGFR; read-out: % inh/act @ 10 µM
  inhibition at 10 µM: 16%
Hr EGFR; read-out: % inh/act @ 30 µM
  inhibition at 30 µM: 17%
[2]; T. brucei, β5 Y113F
  effect of β5 Y113F mutation of T. brucei proteasome on activity: loss of activity
[2]; Trypanosoma brucei, 48 h, read-out: EC50, T. brucei growth
  EC50: 3.3 µM
Hr PR antag; hr PR antag
  EC50/IC50: > 30 µM
Hr PR antag; read-out: % inh/act @ 10 µM
  inhibition at 10 µM: -11%
Hr PR antag; read-out: % inh/act @ 30 µM
  inhibition at 30 µM: -5%
Hr AT1; hr AT1
  EC50/IC50: > 30 µM
Hr AT1; read-out: % inh/act @ 10 µM
  inhibition at 10 µM: 22%
Hr AT1; read-out: % inh/act @ 30 µM
  inhibition at 30 µM: 41%
Hr M2 ag; hr M2 ag
  EC50/IC50: > 30 µM
Hr M2 ag; read-out: % inh/act @ 10 µM
  inhibition at 10 µM: 0%
Hr M2 ag; read-out: % inh/act @ 30 µM
  inhibition at 30 µM: 1%
Hr PR ag; hr PR ag
  EC50/IC50: > 30 µM
Hr PR ag; read-out: % inh/act @ 10 µM
  inhibition at 10 µM: -2%
Hr PR ag; read-out: % inh/act @ 30 µM
  inhibition at 30 µM: 0%
Hr OpD; hr OpD
  EC50/IC50: > 30 µM
Hr OpD; read-out: % inh/act @ 10 µM
  inhibition at 10 µM: 22%
Hr OpD; read-out: % inh/act @ 30 µM
  inhibition at 30 µM: 33%
Hr M1; hr M1
  EC50/IC50: > 30 µM
Hr M1; read-out: % inh/act @ 10 µM
  inhibition at 10 µM: 25%
Hr M1; read-out: % inh/act @ 30 µM
  inhibition at 30 µM: 26%
[3]
  DN AUC PO: 12 µM·h
  DN Cmax PO: 1000 nM
[4]
  abundance mouse: +++ (+++ > 75%)
